This assay addresses SARS 3CL^PRO (Severe acute respiratory syndrome coronavirus, UniProt P0C6X7). Description: biochemical.

Broadly, the IC50 is the concentration that gives 50% inhibition. Higher therefore signals weaker potency. For the compound `O=c1ccc2ccc(O)c(O)c2o1` [Compound C10, Daphnetin], the midpoint of inhibition (ID50), the IC50, lay at 168 µM.

In turn, `O=c1oc2c(O)c(O)ccc2cc1O` [Compound C21, 3,7,8-trihydroxycoumarin] had an IC50 (ID50) of 100 µM.

On to `CC(=O)Nc1cc2ccc(OC(C)=O)c(OC(C)=O)c2oc1=O` [Compound C22, 3-aminoacyl-7,8-diacetoxycoumarin], for which, for the setting “ID50”, the half-maximal inhibitory concentration (IC50) worked out at 184 µM.

Compound `CC(=O)Nc1cc2cc(OC(C)=O)c(OC(C)=O)cc2oc1=O` [Compound C12, 3-aminoacyl-6,7-diacetoxycoumarin] had a half-inhibitory concentration (IC50) (ID50) of 183 µM.

In the case of `O=c1oc2cc(O)c(O)cc2cc1O` [Compound C11, 3-hydroxyesculetin], the IC50 is 97 µM (ID50) and 96.6 µM (ID50 (μM) (by kinetic assay) SARS 3CL^PRO).

(Values after patent US20100168225A1, “Small-Molecule Hepatitis C Virus (HCV) NS3/4A Serine Protease Inhibitors” (priority 2007, published 2010).)
